# Reference: patent US12704521B2, “On-site rapid quantification of tetrahydrocannabinol” (The General Hospital Corporation, priority 2020, dated 2026)
# What was measured:
# [1] = tested on: AuNPAb (THC antibody-coated gold nanoparticles); test: isothermal titration calorimetry of binding to AuNPAb
# [2] = EPOCH test of oral fluid samples from cannabis users; type: in vivo, human
# From the text: Informed consent was obtained from all subjects (cannabis smoker […]). Cannabis users were asked to take saliva samples right after cannabis smoking. Specifically, they were instructed to take a disposable swab (diameter, 1 cm; length, 1.5 cm) into the mouth and roll it for about one minute. The swab was then placed into the sample processing kit. Control samples were collected in the same manner from volunteers who self-declared no history of cannabis use. For the time-course monitoring, three cannabis smokers collected saliva samples hourly after their last smoking. Cylindrical saliva swabs were purchased (SalivaBio Oral Swab, Salimetrics, USA). These swabs were cut in the middle of their height to fit into the sample processing kit. Each halved swab collected about 0.5 mL of saliva.
# Next, EPOCH was used for onsite THC detection. Oral fluid samples from recreational cannabis users (40 cannabis smokers and three THC jelly users) were collected within 10 minutes of product consumption and then tested. As a control, oral fluid samples were also assessed from non-cannabis users (13 traditional tobacco smokers and 30 non-smokers) without a history of cannabis use. […] We observed no significant difference between male and female subjects in any of the cohorts (P>0.05, two-sided Mann-Whitney test; FIG. 5C).
# We also monitored how THC levels changed over time after cannabis smoking. In this case, oral fluid samples were collected hourly after the inhalation and subjected to the EPOCH tests.
structure (smiles),measurement,setting,value
"CCCCCc1cc(O)c2c(c1)OC(C)(C)[C@@H]1CCC(C)=C[C@@H]21 [THC, Δ^9-tetrahydrocannabinol]",association constant Ka with AuNPAb,[1],0.074 nM⁻¹
same,oral THC concentration in all cannabis-user samples,"[2]; 43 cannabis users shortly after consumption, versus regulatory guideline",> 1 ng/mL
same,half-life of THC in saliva,"[2]; after cannabis smoking, hourly samples, three users, single-phase exponential decay",1.4 h
same,oral THC concentration (average/median),"[2]; cannabis smokers, oral fluid collected within 10 minutes of consumption",478 ng/mL
same,half-life,"[2]; human, saliva, inhaled, after cannabis smoking, hourly samples, three users, single-phase exponential decay, read-out: half-life of THC in saliva (converted)",1.4 h
same,concentration at 6 h,"[2]; human, saliva, po, six hours after cannabis smoking, read-out: oral THC level",> 1 ng/mL
